From US20080207447A1, “Cyanopyridine Pesticides” (BASF Aktiengesellschaft, priority 2005, published 2008)

Columns and labels:
Assay type in all cases: in vivo
[1] = tested on: Cotton Aphid (Aphis gossypii), mixed life stages; test: Cotton aphid (Aphis gossypii), mixed life stages, cotyledon dip test; conditions: 120 h, infested cotton cotyledons dipped, determined after 5 days, read-out: mortality of cotton aphid in comparison with untreated controls
Method: (§1) The active compounds were formulated in a mixture of 50 vol.-% acetone:50 vol.-% water. A nonionic surfactant (Kinetic®) was included in the solution at a volume of 0.01% v/v.
(§2) In the following tests, the formulated solutions of the active compounds were diluted to an active ingredient concentration of 300 ppm and the diluted solutions were applied in the below mentioned tests.
(§3) II.1 Cotton Aphid (Aphis gossypil), Mixed Life Stages • Cotton plants at the cotyledon stage were infested prior to treatment by placing a heavily infested leaf from the main aphid colony on top of each cotyledon. The aphids were allowed to transfer overnight and the host leaf was removed. The infested cotyledons were then dipped and agitated in the test solution for 3 seconds and allowed to dry in a fume hood. […] Aphid mortality on the treated plants, relative to mortality on untreated check plants, was determined after 5 days. • In this test compounds each of examples 12 to 36, 38, 39, 40 and 41 at 300 ppm provided at least 90% mortality of cotton aphid (Aphis gossypii, mixed life stages) in comparison with untreated controls. […] Aphid mortality on the treated plants, relative to mortality on untreated check plants, was determined after 5 days. • In this test compounds each of examples 12 to 36, 38, 39, 40 and 41 at 300 ppm provided at least 90% mortality of green peach aphidin comparison with untreated controls. […]

[2] = tested on: Green Peach Aphid (Myzus persicae), mixed life stages; test: Green peach aphid (Myzus persicae), mixed life stages, bell pepper leaf dip test; conditions: foliar, 120 h, infested bell pepper leaves dipped, determined after 5 days, read-out: mortality of green peach aphid in comparison with untreated controls
Method: as §1, §2, §3

Bean Aphid (Aphis fabae) = test: Bean aphid (Aphis fabae), nasturtium plant dip test; conditions: 72 h, infested nasturtium plants dipped, determined after 3 days, read-out: mortality of bean aphid in comparison with untreated controls

Measured: mortality at 300 ppm

Cc1cncc(S(=O)(=O)N(C)C)c1C#N [Example 12, 4-Cyano-5-methyl-pyridine-3-sulfonic acid dimethylamide]
≥ 90%: all assays above
